Two molecules from US20240350436A1, “METHODS FOR HAIR GROWTH” (THE REGENTS OF THE UNIVERSITY OF MICHIGAN, priority 2021, published 2024) can be followed below.

Assay [1] relates to Male and female Balb/cJ mice. Nature of the assay: Hair regrowth on shaved dorsal skin of mice after topical treatment. In kind it is in vivo. The method, then: Hair regrowth was monitored daily. […] The hair length was measured by digital pachymeter.
Drug administration bpV(pic) (Sigma Aldrich, San Louis, MO, USA) was reconstituted in sterile Milli-Q water. bpV(pic) was also used to prepare a 10 μM bpV(pic) gel using 2% carmellose gel base (vehicle). bpV(pic) or vehicle gel was topically applied to the skin twice a day.
The dorsal skin of male and female mice was shaved and treated with vehicle or bpV (pic) topically, twice a day for 21 days (FIG. 1A).
The dorsal skin of male and female mice was shaved and treated with vehicle or SF1670 (N-(9,10-Dioxo-9,10-dihydro-phenanthren-2-yl)-2,2-dimethylpropionamide, N-(9,10-dihydro-9,10-dioxo-2-phenanthrenyl)-2,2-dimethyl-propanamide) topically, twice a day for 5 weeks. Hairs were collected once a week and measured using a millimeter (mm) as the measurement unit.

For assay [2], the system named is hair follicles. To be noted: skin samples of treated mice, H&E (FIG. 2A). The method, then: (§1) Skin samples were taken from treated and vehicle control mice and stained to evaluate skin histomorphology. Hair follicle cycle was evaluated by morphology and divided into 3 phases: growth phase (anagen); regression phase (catagen); and telogen. […] Proliferative cells in the hair follicle (follicular) and interfollicular epidermis (Interfollicular) were quantified for the identified timepoints.

For assay [3], the system named is proliferative cells in the hair follicle and interfollicular epidermis. To be noted: after 10 days, BrdU positive cells per field. The method, then:
BrdU labeling and cell proliferation BrdU (10 mg/ml) was injected in mice via IP two hours previous to the euthanasia. Tissue was collected and processed. The tissue was placed on slides and deparaffinized in xylene substitute and hydrated in descending grades of ethanol. Antigen retrieval was performed by HCL at 37° C. for 1 hour. Anti-BrdU (1:200, Novus Biologicals, Centennial, CO) was incubated overnight at 4° C., followed by secondary antibody conjugated with Alexa 488 incubation and counterstaining with Hoechst 33342. All slides were mounted using Fluoroshield. For quantification, ten fields were captured at a magnification of x400. The images were analyzed using ImageJ (NIH, Bethesda, MD, USA), and the proliferation was expressed as the number of positive cells per field.
as §1

Assay [4] relates to Human epidermal keratinocytes (HEK). To be noted: HEK monolayer, 48 hrs treatment (FIG. 3D). The method, then:
(§2) Flow cytometry analysis Isolation of skin single-cell suspension. Briefly, the subcutis underlying the dorsal skin was removed, and the epithelial cell layer was trypsinized for 2 hours at 37° C. Epithelial cell suspensions were filtered through 70 μm mesh filters (BD Bioscience, San Jose, CA, USA) to achieve a single cell suspension. Cells were maintained on ice. Immunofluorescence staining for CD34-FITC and CD49f-P.E./Cye5 primary antibodies (BD Pharmingen, San Jose, CA, USA) was performed to detected hair follicle stem cells. Antibodies were incubated with the cells for 30 minutes at 4° C. after cells were incubated with FcR blocking reagent (Miltenyi Biotec, Bergisch Gladbach, Germany). Human epidermal keratinocytes (HEK) (Cell Applications, Inc., San Diego, CA) were cultured in Epi-Vita Growth Medium (Cell Applications, Inc., San Diego, CA) and maintained at 37° C. with 5% of CO2 in a humidified incubator. Human epidermal keratinocytes (HEK) were cultured in a monolayer following instructions for culture of primary cells and received BpV(pic) or vehicle for 48 hrs. Treated cells were trypsinized and stained for CD44-APC (BD Pharmingen, San Jose, CA, USA) and Aldefluor kit (StemCell Technologies, Durham, NC, USA) according to the manufacturer's instructions to detected aldehyde dehydrogenase (ALDH) enzymatic activity. […]

The test system of assay [5] is hair follicle stem cells. To be noted: treated mice, FACS (FIGS. 3B-3C). The method, then:
as §2

Each structure is given as a SMILES string.

Turning to `CC(C)(C)C(=O)Nc1ccc2c(c1)C(=O)C(=O)c1ccccc1-2` [SF1670, N-(9,10-Dioxo-9,10-dihydro-phenanthren-2-yl)-2,2-dimethylpropionamide], the “hair regrowth (hair length) compared to vehicle control” value in assay [1] (topically twice a day for 5 weeks, hairs measured once a week (FIG. 4)) is recorded as “faster hair regrowth”.
Turning to `O=C([O-])c1ccccn1.[K+].[K+].[O-2].[O-][O-].[O-][O-].[V+5]` [bpV(pic), dipotassium bisperoxo(pyridine-2-carboxyl)oxovanadate], the “hair follicle cycle phase by morphology” value in assay [2] is “anagen phase”. In assay [3], the “proliferative cells in the hair follicle (follicular) versus vehicle control” value is recorded as “increased” and the “proliferative cells in the interfollicular epidermis versus vehicle control” value is given as “increased”. The “hair regrowth (hair length) in comparison to the vehicle control” value in assay [1] (10 μM gel topically twice a day for 21 days, shaved dorsal skin, all subjects (FIG. 1B)) is on record as “induced hair regrowth”. For the same molecule, the “stem cell number in human stem cells compared to vehicle control” value in assay [4] is on record as “confirmed”. Besides, the “number of hair follicle stem cells compared to vehicle control” value in assay [5] was “increased”.
